Measurements published in patent US10285983B2, “3-(1H-pyrrolo[2,3-B]pyridin-2-yl)-1H-pyrazolo[3,4-B] pyridines and therapeutic uses thereof” (Samumed, LLC, priority 2015, dated 2019).

Test system: primary human fibroblasts derived from IPF patients (LL29 cells)
Test: Inhibition of fibrotic process, αSMA staining in TGF-β1 treated LL29 fibroblasts
Assay type: cell-based
Details: Fibroblast, 96 h, TGF-β1 20 ng/mL, 4 days; for EC50: % αSMA positive cells; for inhibition at 10 µM: given for EC50 >10 μM, read-out: percent inhibition at 10 μM
Text: Representative compounds were screened using primary human fibroblasts (derived from IPF patients) treated with TGF-β1 to determine their ability to inhibit the fibrotic process.
Primary human fibroblasts derived from IPF patients (LL29 cells) [^1Xiaoqiu Liu, et. al., “Fibrotic Lung Fibroblasts Show Blunted Inhibition by cAMP Due to Deficient cAMP Response Element-Binding Protein Phosphorylation”, Journal of Pharmacology and Experimental Therapeutics (2005), 315(2), 678-687; ^2Watts, K. L., et. al., “RhoA signaling modulates cyclin D1 expression in human lung fibroblasts; implications for idiopathic pulmonary fibrosis”, Respiratory Research (2006), 7(1), 88] were obtained from American Type Culture Collection (ATCC) and expanded in F12 medium supplemented with 15% Fetal Bovine Serum and Penicillin/Streptomycin.
Each compound was dissolved in DMSO as a 10 mM stock and used to prepare compound source plates. Serial dilution (1:2, 11-point dose-response curves from […] to […]) and compound transfer was performed using the ECHO 550 (Labcyte, Sunnyvale, Calif.) into 384-well clear bottom assay plates (Greiner Bio-One) with appropriate DMSO backfill for a final DMSO concentration of 0.1%. LL29 cells are plated at 1,500 cells/well in 80 μL/well F12 medium supplemented with 1% Fetal Bovine Serum. One hour after addition of the cells, TGF-β1 (Peprotech; 20 ng/mL) was added to the plates to induce fibrosis (ref. 1 and 2 above). Wells treated with TGF-β1 and containing DMSO were used as controls. Cells were incubated at 37° C. and 5% CO2 for 4 days. Following incubation for 4 days, SYTOX green nucleic acid stain (Life Technologies [Thermo Fisher Scientific]) was added to the wells at a final concentration of 1 μM and incubated at room temperature for 30 min. Cells were then fixed using 4% formaldehyde (Electron Microscopy Sciences), washed 3 times with PBS followed by blocking and permeabilization using 3% Bovine Serum Albumin (BSA; Sigma) and 0.3% Triton X-100 (Sigma) in PBS. Cells were then stained with antibody specific to α-smooth muscle actin (αSMA; Abcam) (ref. 1 and 2 above) in 3% Bovine Serum Albumin (BSA; Sigma) and 0.3% Triton X-100 (Sigma) in PBS, and incubated overnight at 4° C. Cells were then washed 3 times with PBS, followed by incubation with Alexa Flor-647 conjugated secondary antibody (Life Technologies [Thermo Fisher Scientific]) and DAPI at room temperature for 1 hour. Cells were then washed 3 times with PBS and plates were sealed for imaging. αSMA staining was imaged by excitation at 630 nm and emission at 665 nm and quantified using the Compartmental Analysis program on the CellInsight CX5 (Thermo Scientific). Dead or apoptotic cells were excluded from analysis based on positive SYTOX green staining. % of total cells positive for αSMA were counted in each well and normalized to the average of 11 wells treated with TGF-β1 on the same plate using Dotmatics' Studies Software. The normalized averages (fold change over untreated) of 3 replicate wells for each compound concentration were used to create dose-responses curves and EC50 values were calculated using non-linear regression curve fit in the Dotmatics' Studies Software. For EC50 of >10 μM, the percent inhibition at 10 μM is provided.

Row | SMILES | EC50 [µM] | inhibition at 10 µM [%]
1 | O=C(Nc1cncc(-c2cnc3[nH]nc(-c4cc5c(-c6cccc(F)c6)ccnc5[nH]4)c3c2)c1)c1ccccc1 [Compound 11, N-(5-(3-(4-(3-Fluorophenyl)-1H-pyrrolo[2,3-b]pyridin-2-yl)-1H-pyrazolo [3,4-b]pyridin-5-yl)pyridin-3-yl)benzamide] | 0.32 | 
2 | CCCC(=O)Nc1cncc(-c2cnc3[nH]nc(-c4cc5c(N6CCCCC6)ccnc5[nH]4)c3c2)c1 [Compound 185, N-(5-(3-(4-(Piperidin-1-yl)-1H-pyrrolo[2,3-b]pyridin-2-yl)-1H-pyrazolo[3,4-b]pyridin-5-yl)pyridin-3-yl)butyramide] | > 10 | 0
3 | CC(C)C(=O)Nc1cncc(-c2cnc3[nH]nc(-c4cc5c(-c6cccnc6)ccnc5[nH]4)c3c2)c1 [Compound 93, N-(5-(3-(4-(Pyridin-3-yl)-1H-pyrrolo[2,3-b]pyridin-2-yl)-1H-pyrazolo[3,4-b]pyridin-5-yl)pyridin-3-yl)isobutyramide] | > 10 | 42.1
4 | CC(C)(C)C(=O)Nc1cncc(-c2cnc3[nH]nc(-c4cc5c(N6CCCCC6)ccnc5[nH]4)c3c2)c1 [Compound 176, N-(5-(3-(4-(Piperidin-1-yl)-1H-pyrrolo[2,3-b]pyridin-2-yl)-1H-pyrazolo[3,4-b]pyridin-5-yl)pyridin-3-yl)pivalamide] | > 10 | 22.4
5 | CC(C)(C)CC(=O)Nc1cncc(-c2cnc3[nH]nc(-c4cc5c(-c6ccoc6)ccnc5[nH]4)c3c2)c1 [Compound 324, N-(5-(3-(4-(Furan-3-yl)-1H-pyrrolo[2,3-b]pyridin-2-yl)-1H-pyrazolo[3,4-b]pyridin-5-yl)pyridin-3-yl)-3,3-dimethylbutanamide] | > 10 | 0
6 | Cc1ncc(-c2cnc3[nH]nc(-c4cc5c(-c6cc(F)cc(NCCN(C)C)c6)ccnc5[nH]4)c3c2)n1C [Compound 781, N^1-(3-(2-(5-(1,2-Dimethyl-1H-imidazol-5-yl)-1H-pyrazolo[3,4-b]pyridin-3-yl)-1H-pyrrolo[2,3-b]pyridin-4-yl)-5-fluorophenyl)-N^2,N^2-dimethylethane-1,2-diamine] | 0.938 | 
7 | c1csc(-c2ccnc3[nH]c(-c4n[nH]c5ncc(-c6cncc(OC7CCCCC7)c6)cc45)cc23)c1 [Compound 703, 5-(5-(Cyclohexyloxy)pyridin-3-yl)-3-(4-(thiophen-2-yl)-1H-pyrrolo[2,3-b]pyridin-2-yl)-1H-pyrazolo[3,4-b]pyridine] | 2.51 | 
8 | c1ncc(-c2cnc3[nH]nc(-c4cc5c(N6CCCCC6)ccnc5[nH]4)c3c2)cn1 [Compound 195, 3-(4-(Piperidin-1-yl)-1H-pyrrolo[2,3-b]pyridin-2-yl)-5-(pyrimidin-5-yl)-1H-pyrazolo[3,4-b]pyridine] | 4.38 | 
9 | c1ccc(-c2cnc3[nH]nc(-c4cc5c(-c6ccncc6)ccnc5[nH]4)c3c2)nc1 [Compound 140, 5-(Pyridin-2-yl)-3-(4-(pyridin-4-yl)-1H-pyrrolo[2,3-b]pyridin-2-yl)-1H-pyrazolo[3,4-b]pyridine] | > 10 | 24.5
10 | O=C(Nc1cncc(-c2cnc3[nH]nc(-c4cc5c(-c6ccncc6)ccnc5[nH]4)c3c2)c1)C1CCCCC1 [Compound 135, N-(5-(3-(4-(Pyridin-4-yl)-1H-pyrrolo[2,3-b]pyridin-2-yl)-1H-pyrazolo[3,4-b]pyridin-5-yl)pyridin-3-yl)cyclohexanecarboxamide] | > 10 | 19.8
11 | c1cncc(-c2cnc3[nH]nc(-c4cc5c(-c6cccnc6)ccnc5[nH]4)c3c2)c1 [Compound 88, 5-(Pyridin-3-yl)-3-(4-(pyridin-3-yl)-1H-pyrrolo[2,3-b]pyridin-2-yl)-1H-pyrazolo[3,4-b]pyridine] | > 10 | 0
12 | CCC(=O)Nc1cncc(-c2cnc3[nH]nc(-c4cc5c(-c6cccc(F)c6)ccnc5[nH]4)c3c2)c1 [Compound 1, N-(5-(3-(4-(3-Fluorophenyl)-1H-pyrrolo[2,3-b]pyridin-2-yl)-1H-pyrazolo [3,4-b]pyridin-5-yl)pyridin-3-yl)propionamide] | > 10 | 0
